This passage reports IC50 results from ChEMBL document CHEMBL3639216, “Compounds and method for treatment of HIV” (2015).

This assay concerns the target Gag-Pol polyprotein (Human immunodeficiency virus type 1 group M subtype A (isolate U455)(HIV-1), UniProt P24740). Description: Integrase Assay: The effect of each compound on HIV integrase activity was assayed using the HIV-1 Integrase Assay Kit version 2.0, catalogue number EZ-1700 obtained from XpressBio Life Science Products. Immediately prior to the start of the assay, both compounds were dissolved in dimethyl sulfoxide (DMSO) and used immediately in the HIV integration assay. The assay was performed according to the instructions listed by the manufacturer (XpressBio Life Science Products, Maryland, USA). In brief, the required streptavidin-coated strip wells were coated with DS oligo and placed overnight at 4° C. The plates were then incubated with integrase and followed by the addition of test articles at the desired concentration. The plates were developed using the supplied HRP antibody and TMB peroxidase substrate as per the manufacturer's instructions. The reactions were stopped with TMB stop solution and immediately read (<10 min) using a VICTOR XXX. The absorbance of each well was read at 450 nm for 0.5 sec.

Gag-Pol polyprotein, sequence (P24740 1141-1428 limits assumed): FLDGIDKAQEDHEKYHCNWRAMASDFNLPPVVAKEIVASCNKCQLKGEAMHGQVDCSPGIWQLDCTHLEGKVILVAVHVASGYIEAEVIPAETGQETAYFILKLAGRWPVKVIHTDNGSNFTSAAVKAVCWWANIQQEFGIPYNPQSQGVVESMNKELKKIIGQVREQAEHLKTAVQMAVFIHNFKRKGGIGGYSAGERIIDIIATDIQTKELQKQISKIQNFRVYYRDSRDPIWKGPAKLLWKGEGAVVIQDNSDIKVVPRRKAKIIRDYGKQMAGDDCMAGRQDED

As a reminder, the IC50 is the midpoint of a concentration-inhibition curve. Read a low IC50 as greater potency. As for `Cn1cnc(-c2nnc(Cc3ccc(F)cc3)o2)c(O)/c1=N/O`, the midpoint of inhibition, the IC50, lay at 58.7 µM.

In turn, `Cn1nc(-c2nnc(Cc3ccc(F)cc3)o2)/c(=N/O)c2ncccc21` displayed a concentration for half-maximal inhibition (IC50) of 23.9 µM. Compared with the last compound, the IC50 is about 2.5-fold lower.
